Like-named read-outs stand apart in the source and are kept apart here.
What was measured:
[1] = system: intracellular L. donovani in THP-1 macrophage host cells; assay: THP-1 macrophage infection assay: anti L. donovani activity; details: for SI (CC50/IC50): THP-1 CC50 / L. donovani IC50; for L. donovani growth inhibitory activity (in words): L. donovani in THP-1 macrophages
[2] = system: intracellular L. donovani in THP-1 macrophage host cells
[3] = THP-1 macrophage infection assay: cytotoxicity to host cells; details: human
[4] = system: L. donovani amastigote/macrophages; parameters: method as in PMID 25740547; details: GSK kinetoplastid high-throughput screen; cited from earlier work
[5] = system: L. donovani in infected macrophages; parameters: method as in PMID 25740547; details: cited from earlier work
[6] = Metabolic stability of compound 1; type: in vitro ADME
Excerpt: We first analyzed compound 1 for physicochemical parameters such as the molecular weight, cLogP, polar surface area, freely rotatable bonds, hydrogen bond donors and acceptors and solubility at pH 2 and 6.5, as well as metabolic stability to evaluate its drug-likeness (Table 1). […] These “drug-like” physicochemical properties and the good synthetic accessibility of the scaffold further supported exploring the compound’s SAR to reveal valuable insights and guidance for drug developers.

HepG2 = system: HepG2; parameters: method as in PMID 25740547; details: GSK screen; read-out: CC50 against HepG2 cells; cited from earlier work
[7] = Leishmania donovani, THP-1, read-out: IC50 (reduction of total number of parasites by 50%)

Compound	IC50 [1, 7]	SI (CC50/IC50) [1]	CC50 at 72 h [3]	other results
N′-(2-(Imidazole-2-yl)acetyl)quinoline-2-carbohydrazide [Compound 12]	–	–	–	Complete parasite clearance ([1]; L. donovani in THP-1 macrophage host cells, 10-point curve, top 100 μM, duplicates, n = 1): >100 µM; IC50 ([1]; read-out: IC50 (reduction of total number of parasites by 50%), L. donovani in THP-1 macrophage host cells, 10-point curve, 2× serial dilution, top 100 μM, duplicates, n = 1): 45 µM; CC50 (THP-1 macrophages): 33 µM; SI (CC50/IC50) [2]: 0.7
Cn1c(CC(=O)NNC(=O)c2ccc(-c3cccc(C#N)c3)cn2)nc2ccccc21 [Compound 17d, 5-(3-Cyanophenyl)-N′-(2-(1-methyl-1H-benzo[d]imidazole-2-yl)acetyl)picolinohydrazide]	1.4 µM	>74	> 100 µM	–
Cn1c(CC(=O)NNC(=O)c2ccccn2)nc2ccccc21 [Compound 13b, N′-(2-(1-Methyl-1H-benzo[d]imidazole-2-yl)acetyl)picolinohydrazide]	44 µM	1.4	62 µM	–
Cn1c(CC(=O)NNC(=O)c2ccccc2)nc2ccccc21 [Compound 13c, N′-(2-(1-Methyl-1H-benzo[d]imidazole-2-yl)acetyl)benzohydrazide]	> 100 µM	–	> 100 µM	L. donovani growth inhibitory activity (in words) [1]: completely lost their L. donovani growth inhibitory activity
O=C(Cc1nc2ccccc2o1)NNC(=O)c1ccc2ccccc2n1 [Compound 5c, N′-(2-(Benzo[d]oxazol-2-yl)acetyl)quinoline-2-carbohydrazide]	49 µM	1.1	54 µM	–
Cn1c(CC(=O)NNC(=O)c2cccc(-c3ccccc3)n2)nc2ccccc21 [Compound 13d, N′-(2-(1-Methyl-1H-benzo[d]imidazole-2-yl)acetyl)-6-phenylpicolinohydrazide]	20 µM	–	> 100 µM	–
O=C(Cc1nc2ccccc2[nH]1)NNC(=O)c1ccc2ccccc2n1 [Compound 5a, N′-(2-(1H-Benzo[d]imidazole-2-yl)acetyl)quinoline-2-carbohydrazide]	5.9 µM	>17	> 100 µM	–
Cn1c(CC(=O)NNC(=O)c2ccc(-c3ccc(Cl)cc3)cn2)nc2ccccc21 [Compound 17c, 5-(4-Chlorophenyl)-N′-(2-(1-methyl-1H-benzo[d]imidazole-2-yl)acetyl)picolinohydrazide]	1 µM	74	73 µM	–
COc1ccc(-c2ccc(C(=O)NNC(=O)Cc3nc4ccccc4n3C)nc2)cc1 [Compound 17h, 5-(4-Methoxyphenyl)-N′-(2-(1-methyl-1H-benzo[d]imidazole-2-yl)acetyl)picolinohydrazide]	0.7 µM	>145	> 100 µM	–
O=C(Cc1nc2ccccc2s1)NNC(=O)c1ccc2ccccc2n1 [Compound 5b]	> 100 µM	–	> 100 µM	–
Cn1c(CC(=O)NNC(=O)c2ccc(-c3ccccc3Cl)cn2)nc2ccccc21 [Compound 17a, 5-(2-Chlorophenyl)-N′-(2-(1-methyl-1H-benzo[d]imidazole-2-yl)acetyl)picolinohydrazide]	1 µM	>103	> 100 µM	–
Cc1ccc(-c2ccc(C(=O)NNC(=O)Cc3nc4ccccc4n3C)nc2)cc1 [Compound 17k, N′-(2-(1-Methyl-1H-benzo[d]imidazole-2-yl)acetyl)-5-(p-tolyl)picolinohydrazide]	0.2 µM	>500	> 100 µM	–
Cc1ccccc1-c1ccc(C(=O)NNC(=O)Cc2nc3ccccc3n2C)nc1 [Compound 17i, N′-(2-(1-Methyl-1H-benzo[d]imidazole-2-yl)acetyl)-5-(o-tolyl)picolinohydrazide]	0.4 µM	168	67 µM	–
Cc1cccc(-c2ccc(C(=O)NNC(=O)Cc3nc4ccccc4n3C)nc2)c1 [Compound 17j, N′-(2-(1-Methyl-1H-benzo[d]imidazole-2-yl)acetyl)-5-(m-tolyl)picolinohydrazide]	0.3 µM	173	52 µM	–
Cn1c(CC(=O)NNC(=O)c2ccc3ccccc3c2)nc2ccccc21 [Compound 13a, N′-(2-(1-Methyl-1H-benzo[d]imidazole-2-yl)acetyl)-2-naphthohydrazide]	> 100 µM	–	> 100 µM	L. donovani growth inhibitory activity (in words) [1]: completely lost their L. donovani growth inhibitory activity
COc1cccc(-c2ccc(C(=O)NNC(=O)Cc3nc4ccccc4n3C)nc2)c1 [Compound 17g, 5-(3-Methoxyphenyl)-N′-(2-(1-methyl-1H-benzo[d]imidazole-2-yl)acetyl)picolinohydrazide]	0.6 µM	>172	> 100 µM	–
COc1ccccc1-c1ccc(C(=O)NNC(=O)Cc2nc3ccccc3n2C)nc1 [Compound 17f, 5-(2-Methoxyphenyl)-N′-(2-(1-methyl-1H-benzo[d]imidazole-2-yl)acetyl)picolinohydrazide]	0.6 µM	32	19 µM	–
Cn1c(CC(=O)NNC(=O)c2ccc3ccccc3n2)nc2ccccc21 [Compound 1, N′-(2-(1-Methyl-1H-benzo[d]imidazole-2-yl)acetyl)quinoline-2-carbohydrazide]	1.9 µM	>54	> 100 µM	pIC50 L. donovani imaging: amastigote/macrophages [4]: 6.1; pIC50 L. donovani in infected macrophages ([5]; GSK kinetoplastid high-throughput screen): ~5.9; IC50 ([5]; GSK screen, read-out: IC50 against L. donovani in infected macrophages): ~1.3 µM; therapeutic window CC50/IC50 (selectivity for the parasite) ([5]; HepG2 CC50 / L. donovani IC50, GSK screen): ~79; microsomal CLint ([6]; intrinsic clearance, read-out: metabolic stability Clint,in vitro): 22 µL/min/mg; half-life ([6]; read-out: metabolic stability half-life t1/2): 1.33 h; CC50 (HepG2): ~100 µM
Cn1c(CC(=O)NNC(=O)c2ccc(-c3ccc(C#N)cc3)cn2)nc2ccccc21 [Compound 17e, 5-(4-Cyanophenyl)-N′-(2-(1-methyl-1H-benzo[d]imidazole-2-yl)acetyl)picolinohydrazide]	0.8 µM	120	96 µM	–
Cn1c(CC(=O)NNC(=O)c2ccc(-c3cccc(Cl)c3)cn2)nc2ccccc21 [Compound 17b, 5-(3-Chlorophenyl)-N′-(2-(1-methyl-1H-benzo[d]imidazole-2-yl)acetyl)picolinohydrazide]	1 µM	94	94 µM	–
Cn1c(CC(=O)NNC(=O)c2ccc(-c3ccccc3)cn2)nc2ccccc21 [Compound 13e, N′-(2-(1-Methyl-1H-benzo[d]imidazole-2-yl)acetyl)-5-phenylpicolinohydrazide]	1.7 µM	29	49 µM	–

Reference: PMC11375810, “Novel Diacyl-hydrazide Compounds as Potential Therapeutics for Visceral Leishmaniasis” (ACS Omega, 2024)
